The text below walks through data of patent US20240116985A1, “STAPLED PEPTIDES AND METHODS THEREOF” (priority 2020, published 2024).

One data set is described as follows: CHI Log D procedure. The class given is physicochemical. The settings on record: pH 7.4.
The target in data set [1] is T1, full-length beta-Catenin (Uniprot ID P35222) (Homo sapiens, UniProt P35222).
T1 construct: 10 nM full-length beta-Catenin (Uniprot ID P35222)
T1 sequence (P35222 1-781): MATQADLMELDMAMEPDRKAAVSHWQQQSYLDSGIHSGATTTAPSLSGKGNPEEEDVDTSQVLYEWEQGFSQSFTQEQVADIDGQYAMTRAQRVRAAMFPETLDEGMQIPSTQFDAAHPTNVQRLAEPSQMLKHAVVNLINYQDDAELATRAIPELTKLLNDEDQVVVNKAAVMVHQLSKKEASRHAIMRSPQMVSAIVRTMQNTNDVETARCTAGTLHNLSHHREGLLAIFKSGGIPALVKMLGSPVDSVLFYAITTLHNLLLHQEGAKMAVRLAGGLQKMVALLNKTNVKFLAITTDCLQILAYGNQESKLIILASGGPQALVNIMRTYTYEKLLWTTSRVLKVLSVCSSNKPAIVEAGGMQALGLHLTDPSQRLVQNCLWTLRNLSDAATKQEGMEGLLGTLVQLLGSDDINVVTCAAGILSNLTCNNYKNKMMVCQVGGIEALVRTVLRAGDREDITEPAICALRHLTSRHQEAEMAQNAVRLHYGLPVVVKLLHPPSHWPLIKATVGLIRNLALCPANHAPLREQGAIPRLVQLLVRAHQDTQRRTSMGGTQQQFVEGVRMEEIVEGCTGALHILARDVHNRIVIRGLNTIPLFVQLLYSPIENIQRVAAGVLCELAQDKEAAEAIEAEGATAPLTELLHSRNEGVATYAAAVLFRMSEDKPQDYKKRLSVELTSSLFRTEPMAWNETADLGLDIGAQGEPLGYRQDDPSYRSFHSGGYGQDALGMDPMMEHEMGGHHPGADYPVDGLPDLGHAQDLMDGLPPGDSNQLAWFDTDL
The data set is described as follows: Fluorescence polarization IC50 (beta-catenin / 5FAM-TCF4 10-53 competition). The class given is binding.

Another data set in a line: Solubility in PBS. The format is physicochemical. The procedure, abridged: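 Read-out is the HPLC peak area of the supernatant from ultracentrifuged PBS solution, scaled against a 50 μM peptide DMSO injection; value reported as [(PBS area)/(DMSO area)]*50 uM.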
Where [2] appears, read: fluorescence polarization, beta-catenin, read-out: FP EC50.

The structures appear in SMILES notation. pIC50: −log10 of the molar value. Values after ≈ are worked out from the molar mass of the structure shown. Like-named read-outs stand apart in the source and are kept apart here.

Consider `CC(=O)N1CCC[C@]12CC=CCCCC1(CCCC=CCCCOC(=O)N3CC[C@@](C(=O)N[C@@H](Cc4ccsc4)C(=O)N[C@@H](Cc4csc5ccccc45)C(=O)N[C@@H](CO)C(N)=O)(C3)NC(=O)[C@H](CC(N)=O)NC(=O)[C@H](Cc3ccccc3)NC(=O)[C@H](C)NC(=O)[C@H](C)NC(=O)[C@H](CN(CC(=O)O)CC(F)(F)F)NC(=O)[C@H](CC(=O)O)NC1=O)NC(=O)[C@H](CC(C)(C)C)NC(=O)[C@H](CC(=O)O)NC2=O` (stereo partly drawn) [I-941, Ac-PL3-Asp-Npg-B5-Asp-TfeGA-Ala-Ala-Phe-Asn-PyrS2-3Thi-BztA-Ser-NH2], for which the “CHI Log D” value in “CHI Log D procedure” is 2.011. The pIC50 in data set [1] (setting [2]) and in data set [1] (read-out: beta-Catenin FP IC50) was 5.68 each time. Further, the “Solubility” value in “Solubility in PBS” was 46 µM (≈ 91.5 µg/mL).
As to `CC(=O)N1CCC[C@]12CC=CCCCC1(CCCC=CCCCOC(=O)N3CC[C@@](C(=O)N[C@@H](Cc4ccsc4)C(=O)N[C@@H](Cc4csc5ccccc45)C(=O)N[C@H](C(N)=O)[C@@H](C)O)(C3)NC(=O)[C@H](CC(N)=O)NC(=O)[C@H](Cc3ccccc3)NC(=O)[C@H](C)NC(=O)[C@H](C)NC(=O)[C@H](CN(CC(=O)O)CC(F)(F)F)NC(=O)[C@H](CC(=O)O)NC1=O)NC(=O)[C@H](CC(C)(C)C)NC(=O)[C@H](CC(=O)O)NC2=O` (stereo partly drawn) [I-942, Ac-PL3-Asp-Npg-B5-Asp-TfeGA-Ala-Ala-Phe-Asn-PyrS2-3Thi-BztA-Thr-NH2], in “CHI Log D procedure”, the “CHI Log D” value is 1.984. Besides, the pIC50 in data set [1] (setting [2]) and in data set [1] (read-out: beta-Catenin FP IC50) was 5.89 throughout. In addition, the “Solubility” value in “Solubility in PBS” came out at 46 µM (≈ 92.1 µg/mL).
`CC(=O)N1CCC[C@]12CC=CCCCC1(CCCC=CCCCOC(=O)N3CC[C@@](C(=O)N[C@@H](Cc4ccsc4)C(=O)N[C@@H](Cc4csc5ccccc45)C(=O)N[C@H](C(N)=O)[C@@H](C)O)(C3)NC(=O)[C@H](CC(N)=O)NC(=O)[C@H](Cc3ccccc3)NC(=O)[C@H](C)NC(=O)[C@H](C)NC(=O)[C@H](CN(CC(=O)O)CC(F)(F)F)NC(=O)[C@H](CC(=O)O)NC1=O)NC(=O)[C@H](CC(C)(C)C)NC(=O)[C@H](CC(=O)O)NC2=O` (stereo partly drawn) [I-943, Ac-PL3-Asp-Npg-B5-Asp-TfeGA-Ala-Ala-Phe-Asn-PyrS2-3Thi-BztA-Thr-NH2]: the “CHI Log D” value in the data set “CHI Log D procedure” is 2.071. The pIC50 in data set [1] (setting [2]) and in data set [1] (read-out: beta-Catenin FP IC50) was 5.70 throughout. Also, the “Solubility” value in the data set “Solubility in PBS” is 49 µM (≈ 98.1 µg/mL).
Consider `CC(=O)N1CCC[C@]12CC=CCCCC1(CCCC=CCCCOC(=O)N3CC[C@@](C(=O)N[C@@H](Cc4ccsc4)C(=O)N[C@@H](Cc4csc5ccccc45)C(=O)N[C@@H](CC(C)C)C(N)=O)(C3)NC(=O)[C@H](CC(N)=O)NC(=O)[C@H](Cc3ccccc3)NC(=O)[C@H](C)NC(=O)[C@H](C)NC(=O)[C@H](CN(CC(=O)O)CC(F)(F)F)NC(=O)[C@H](CC(=O)O)NC1=O)NC(=O)[C@H](CC(C)(C)C)NC(=O)[C@H](CC(=O)O)NC2=O` (stereo partly drawn) [I-946, Ac-PL3-Asp-Npg-B5-Asp-TfeGA-Ala-Ala-Phe-Asn-PyrS2-3Thi-BztA-Leu-NH2], for which the “CHI Log D” value in “CHI Log D procedure” came out at 2.209. Also, the pIC50 in data set [1] (setting [2]) and in data set [1] (read-out: beta-Catenin FP IC50) was 6.10 in each case. Further, the “Solubility” value in the data set “Solubility in PBS” was 47 µM (≈ 94.7 µg/mL).
With `CC(=O)N1CCC[C@]12CC=CCCCC1(CCCC=CCCCOC(=O)N3CC[C@@](C(=O)N[C@@H](Cc4ccsc4)C(=O)N[C@@H](Cc4csc5ccccc45)C(=O)N[C@@H](CC(C)C)C(N)=O)(C3)NC(=O)[C@H](CC(N)=O)NC(=O)[C@H](Cc3ccccc3)NC(=O)[C@H](C)NC(=O)[C@H](C)NC(=O)[C@H](CN(CC(=O)O)CC(F)(F)F)NC(=O)[C@H](CC(=O)O)NC1=O)NC(=O)[C@H](CC(C)(C)C)NC(=O)[C@H](CC(=O)O)NC2=O` (stereo partly drawn) [I-947, Ac-PL3-Asp-Npg-B5-Asp-TfeGA-Ala-Ala-Phe-Asn-PyrS2-3Thi-BztA-Leu-NH2], the “CHI Log D” value in “CHI Log D procedure” is 2.271. Besides, the pIC50 in data set [1] (setting [2]) and in data set [1] (read-out: beta-Catenin FP IC50) was 5.98 each time. Further, the “Solubility” value in the data set “Solubility in PBS” is 47 µM (≈ 94.7 µg/mL).
`CC(=O)N1CCC[C@]12CC=CCCCC1(CCCC=CCCCOC(=O)N3CC[C@@](C(=O)N[C@@H](Cc4ccsc4)C(=O)N[C@@H](Cc4csc5ccccc45)C(=O)N[C@@H](C(N)=O)[C@H](C)O)(C3)NC(=O)[C@H](CC(N)=O)NC(=O)[C@H](Cc3ccccc3)NC(=O)[C@H](C)NC(=O)[C@H](C)NC(=O)[C@H](CN(CC(=O)O)CC(F)(F)F)NC(=O)[C@H](CC(=O)O)NC1=O)NC(=O)[C@H](CC(C)(C)C)NC(=O)[C@H](CC(=O)O)NC2=O` (stereo partly drawn) [I-948, Ac-PL3-Asp-Npg-B5-Asp-TfeGA-Ala-Ala-Phe-Asn-PyrS2-3Thi-BztA-dThr-NH2]: the “CHI Log D” value in the data set “CHI Log D procedure” is given as 2.013. For the same compound, the pIC50 in data set [1] (setting [2]) and in data set [1] (read-out: beta-Catenin FP IC50) was 5.61 in each case. Further, in “Solubility in PBS”, the “Solubility” value turned out to be 47 µM (≈ 94.1 µg/mL).
As to `CC(=O)N1CCC[C@]12CC=CCCCC1(CCCC=CCCCOC(=O)N3CC[C@@](C(=O)N[C@@H](Cc4ccsc4)C(=O)N[C@@H](Cc4csc5ccccc45)C(=O)N[C@@H](C(N)=O)[C@H](C)O)(C3)NC(=O)[C@H](CC(N)=O)NC(=O)[C@H](Cc3ccccc3)NC(=O)[C@H](C)NC(=O)[C@H](C)NC(=O)[C@H](CN(CC(=O)O)CC(F)(F)F)NC(=O)[C@H](CC(=O)O)NC1=O)NC(=O)[C@H](CC(C)(C)C)NC(=O)[C@H](CC(=O)O)NC2=O` (stereo partly drawn) [I-949, Ac-PL3-Asp-Npg-B5-Asp-TfeGA-Ala-Ala-Phe-Asn-PyrS2-3Thi-BztA-dThr-NH2], the “CHI Log D” value in “CHI Log D procedure” was 2.086. Moreover, the pIC50 in data set [1] (setting [2]) and in data set [1] (read-out: beta-Catenin FP IC50) was 5.65 throughout. In addition, the “Solubility” value in “Solubility in PBS” amounted to 49 µM (≈ 98.1 µg/mL).
As to `CC(=O)N1CCC[C@]12CC=CCCCC1(CCCC=CCCCOC(=O)N3CC[C@@](C(=O)N[C@@H](Cc4ccsc4)C(=O)N[C@@H](Cc4csc5ccccc45)C(=O)N[C@@H](CCO)C(N)=O)(C3)NC(=O)[C@H](CC(N)=O)NC(=O)[C@H](Cc3ccccc3)NC(=O)[C@H](C)NC(=O)[C@H](C)NC(=O)[C@H](CN(CC(=O)O)CC(F)(F)F)NC(=O)[C@H](CC(=O)O)NC1=O)NC(=O)[C@H](CC(C)(C)C)NC(=O)[C@H](CC(=O)O)NC2=O` (stereo partly drawn) [I-950, Ac-PL3-Asp-Npg-B5-Asp-TfeGA-Ala-Ala-Phe-Asn-PyrS2-3Thi-BztA-Hse-NH2], the “CHI Log D” value in the data set “CHI Log D procedure” stood at 1.9. The pIC50 in data set [1] (setting [2]) and in data set [1] (read-out: beta-Catenin FP IC50) was 5.79 in each case. In addition, in the data set “Solubility in PBS”, the “Solubility” value turned out to be 46 µM (≈ 92.1 µg/mL).
Consider `CC(=O)N1CCC[C@]12CC=CCCCC1(CCCC=CCCCOC(=O)N3CC[C@@](C(=O)N[C@@H](Cc4ccsc4)C(=O)N[C@@H](Cc4csc5ccccc45)C(=O)N[C@@H](CCO)C(N)=O)(C3)NC(=O)[C@H](CC(N)=O)NC(=O)[C@H](Cc3ccccc3)NC(=O)[C@H](C)NC(=O)[C@H](C)NC(=O)[C@H](CN(CC(=O)O)CC(F)(F)F)NC(=O)[C@H](CC(=O)O)NC1=O)NC(=O)[C@H](CC(C)(C)C)NC(=O)[C@H](CC(=O)O)NC2=O` (stereo partly drawn) [I-951, Ac-PL3-Asp-Npg-B5-Asp-TfeGA-Ala-Ala-Phe-Asn-PyrS2-3Thi-BztA-Hse-NH2], for which the “CHI Log D” value in the data set “CHI Log D procedure” is given as 1.971. Besides, the pIC50 in data set [1] (setting [2]) and in data set [1] (read-out: beta-Catenin FP IC50) was 5.83 throughout. For the same compound, the “Solubility” value in the data set “Solubility in PBS” is 47 µM (≈ 94.1 µg/mL).
Turning to `CC(=O)N1CCC[C@]12CC=CCCCC1(CCCC=CCCCOC(=O)N3CC[C@@](C(=O)N[C@@H](Cc4ccsc4)C(=O)N[C@@H](Cc4csc5ccccc45)C(=O)N[C@@H](Cc4ccc(O)cc4)C(N)=O)(C3)NC(=O)[C@H](CC(N)=O)NC(=O)[C@H](Cc3ccccc3)NC(=O)[C@H](C)NC(=O)[C@H](C)NC(=O)[C@H](CN(CC(=O)O)CC(F)(F)F)NC(=O)[C@H](CC(=O)O)NC1=O)NC(=O)[C@H](CC(C)(C)C)NC(=O)[C@H](CC(=O)O)NC2=O` (stereo partly drawn) [I-953, Ac-PL3-Asp-Npg-B5-Asp-TfeGA-Ala-Ala-Phe-Asn-PyrS2-3Thi-BztA-Tyr-NH2], the “CHI Log D” value in “CHI Log D procedure” is reported as 2.04. For the same compound, the pIC50 in data set [1] (setting [2]) and in data set [1] (read-out: beta-Catenin FP IC50) was 5.84 throughout. For the same compound, in the data set “Solubility in PBS”, the “Solubility” value stood at 47 µM (≈ 97 µg/mL).
For `CC(=O)N1CCC[C@]12CC=CCCCC1(CCCC=CCCCOC(=O)N3CC[C@@](C(=O)N[C@@H](Cc4ccsc4)C(=O)N[C@@H](Cc4csc5ccccc45)C(=O)N[C@@H](CO)C(N)=O)(C3)NC(=O)[C@H](CO)NC(=O)[C@H](Cc3ccccc3)NC(=O)[C@H](C)NC(=O)[C@H](C)NC(=O)[C@H](CN(CC(=O)O)CC(F)(F)F)NC(=O)[C@H](CC(=O)O)NC1=O)NC(=O)[C@H](CC(C)(C)C)NC(=O)[C@H](CC(=O)O)NC2=O` (stereo partly drawn) [I-954, Ac-PL3-Asp-Npg-B5-Asp-TfeGA-Ala-Ala-Phe-Ser-PyrS2-3Thi-BztA-Ser-NH2], the “CHI Log D” value in the data set “CHI Log D procedure” was determined as 1.918. Besides, the pIC50 in data set [1] (setting [2]) and in data set [1] (read-out: beta-Catenin FP IC50) was 6.05 each time. Moreover, in the data set “Solubility in PBS”, the “Solubility” value was 46 µM (≈ 90.2 µg/mL).
